According to patent US8835134B2, “Cycloastragenol monoglucoside, preparation, pharmaceutical composition and application thereof” (Tianjin Institute of Pharmaceutical Research, priority 2007, dated 2014):

Tested on: anesthetized open-chest dogs
Assay: Hemodynamics of anesthetized open-chest dogs, intravenous infusion
Assay type: in vivo, mongrel dogs
Settings: 0.3 mg/kg iv
Description: The animals were anesthetized by intravenous injection of 30 mg/kg sodium pentobarbital, tracheally intubated, and mechanically ventilated with positive air pressure. Left thoracotomy was performed through the fourth intercostal space and the heart was suspended in a pericardial cradle, the aortic root was isolated and a probe of blood flow meter (12 or 14 mm in diameter) was fixed to measure the aortic blood flow as a representation of cardiac output (CO), the circumflex branch of left coronary artery was isolated and a probe of blood flow meter (2 or 2.5 mm in diameter) was fixed to measure the coronary blood flow (CBF). A polyethylene catheter filled with heparin physiological saline was inserted through cardiac apex into the left ventricle to measure the left ventricular pressure (LVP) and left ventricular end-diastolic pressure (LVEDP), Peak positive and peak negative first derivatives of the LVP (+ LVdp/dt and − LVdp/dt) were calculated with the Acknowledge software. The systolic blood pressure (SBP), diastolic blood pressure (DBP) and mean arterial pressure (MAP) were measured by polyethylene catheter via the femoral artery, ECG □ was measured by a AC-601G ECG amplifier. The above-mentioned analog signal was input into a data acquisition workstation (MP100, BIOPAC Systems, USA) to a computer running Acknowledge (version 3.7.1).
After surgery, various indexes before administration were recorded until the indexes were stable, and then intravenous infusion administration was conducted. Thirty dogs were divided into five groups (six dogs in each group), the experiment groups were given 0.15, 0.3, 0.6 mg/kg of ASP-[…] respectively, the normal control group was given 1 ml/kg of solvent, and the positive control group was given 0.3 mg/kg of astragaloside IV. The delivery volumes were 15 ml for each dog was and the delivery velocity was 1 ml/min. The indexes were recorded at 5, 10, 15, 20, 30, 45, 60, 90 and 120 mins after drug administration. At the end of experiment, the hearts were excised and weighted. The myocardial blood flow for per hectogram (CF), coronary resistance (CR), cardiac index (CI), left ventricular work (LVW) and total peripheral resistance (TPR) were calculated according to the following formulae: CF=CBF×[…]/heart weight CR=MAP/CF CI=CO/0.11×(body weight)^2/3 LVW=CO×(MAP−5)×1.052×0.0136 TPR=MAP×79.92/CO
Data are expressed as mean±SD ( x±s), the paired t-test was used to compare the significance between before and after administration, the unpaired t-test was adopted for comparison between groups.

`CC(C)(O)[C@@H]1CC[C@](C)([C@H]2[C@@H](O)C[C@@]3(C)[C@@H]4C[C@H](O[C@@H]5O[C@H](CO)[C@@H](O)[C@H](O)[C@H]5O)[C@H]5C(C)(C)[C@@H](O[C@@H]6OC[C@@H](O)[C@H](O)[C@H]6O)CC[C@@]56C[C@@]46CC[C@]23C)O1` [astragaloside IV, reference compound] was tested, and the TPR (30 min after administration) was 5430 ± 1302 dyn · s/cm^5, the “TPR change vs before administration” value (30 min after administration) was “(206 ± 718) dyn · s/cm^5” and the dp/dt (30 min after administration) was 1140 ± 92 mmHg/s. For the same compound, the “dp/dt change vs before administration” value (30 min after administration) was “(85 ± 84) mmHg/s”, the “−dp/dt” value (30 min after administration) was −807 ± 124 mmHg/s and the “−dp/dt change vs before administration” value (30 min after administration) was “(28 ± 160) mmHg/s”. The CF (45 min after administration) was 54.0 ± 15.0 ml/min/100 g, the “CF change vs before administration” value (45 min after administration) was “(−2.9 ± 7.7) ml/min/100 g” and the CI (45 min after administration) was 2.08 ± 0.52 L/min/m^2. For the same compound, the “CI change vs before administration” value (45 min after administration) was “(−0.06 ± 0.19) L/min/m^2”, the CO (45 min after administration) was 1.17 ± 0.32 L/min and the “CO change vs before administration” value (45 min after administration) was “(−0.03 ± 0.10) L/min”. For the same compound, the CR (45 min after administration) was 1.44 ± 0.50 mmHg/ml/min/100 g, the “CR change vs before administration” value (45 min after administration) was “(0.04 ± 0.25) mmHg/ml/min/100 g” and the LVEDP (45 min after administration) was 0.9 ± 2.1 mmHg. The “LVEDP change vs before administration” value (45 min after administration) was “(−1.55 ± 1.42) mmHg”, the LVP (45 min after administration) was 98 ± 10 mmHg and the “LVP change vs before administration” value (45 min after administration) was “(−4.5 ± 11.7) mmHg”. For the same compound, the LVW (45 min after administration) was 1.14 ± 0.40 kg · m, the “LVW change vs before administration” value (45 min after administration) was “(−0.07 ± 0.11) kg · m” and the TPR (45 min after administration) was 5301 ± 1638 dyn · s/cm^5. For the same compound, the “TPR change vs before administration” value (45 min after administration) was “(77 ± 552) dyn · s/cm^5”, the dp/dt (45 min after administration) was 1124 ± 163 mmHg/s and the “dp/dt change vs before administration” value (45 min after administration) was “(69 ± 73) mmHg/s”. For the same compound, the “−dp/dt” value (45 min after administration) was −809 ± 137 mmHg/s, the “−dp/dt change vs before administration” value (45 min after administration) was “(26 ± 159) mmHg/s” and the CF (60 min after administration) was 53.7 ± 18.1 ml/min/100 g. For the same compound, the “CF change vs before administration” value (60 min after administration) was “(−3.3 ± 5.1) ml/min/100 g”, the CI (60 min after administration) was 2.10 ± 0.53 L/min/m^2 and the “CI change vs before administration” value (60 min after administration) was “(−0.05 ± 0.11) L/min/m^2”. For the same compound, the CO (60 min after administration) was 1.18 ± 0.34 L/min, the “CO change vs before administration” value (60 min after administration) was “(−0.02 ± 0.06) L/min” and the CR (60 min after administration) was 1.51 ± 0.64 mmHg/ml/min/100 g. The “CR change vs before administration” value (60 min after administration) was “(0.10 ± 0.23) mmHg/ml/min/100 g”, the LVEDP (60 min after administration) was 0.8 ± 1.7 mmHg and the “LVEDP change vs before administration” value (60 min after administration) was “(−1.57 ± 1.39) mmHg”. The LVP (60 min after administration) was 98 ± 11 mmHg, the “LVP change vs before administration” value (60 min after administration) was “(−5.3 ± 15.3) mmHg” and the LVW (60 min after administration) was 1.16 ± 0.47 kg · m. For the same compound, the “LVW change vs before administration” value (60 min after administration) was “(−0.05 ± 0.09) kg · m”, the TPR (60 min after administration) was 5278 ± 1714 dyn · s/cm^5 and the “TPR change vs before administration” value (60 min after administration) was “(54 ± 458) dyn · s/cm^5”. The dp/dt (60 min after administration) was 1098 ± 192 mmHg/s, the “dp/dt change vs before administration” value (60 min after administration) was “(43 ± 77) mmHg/s” and the “−dp/dt” value (60 min after administration) was −788 ± 126 mmHg/s. For the same compound, the “−dp/dt change vs before administration” value (60 min after administration) was “(48 ± 177) mmHg/s”, the CF (90 min after administration) was 57.4 ± 19.0 ml/min/100 g and the “CF change vs before administration” value (90 min after administration) was “(0.4 ± 9.5) ml/min/100 g”. The CI (90 min after administration) was 2.15 ± 0.52 L/min/m^2, the “CI change vs before administration” value (90 min after administration) was “(0.01 ± 0.08) L/min/m^2” and the CO (90 min after administration) was 1.21 ± 0.32 L/min. For the same compound, the “CO change vs before administration” value (90 min after administration) was “(0.00 ± 0.05) L/min”, the CR (90 min after administration) was 1.43 ± 0.83 mmHg/ml/min/100 g and the “CR change vs before administration” value (90 min after administration) was “(0.02 ± 0.51) mmHg/ml/min/100 g”. For the same compound, the LVEDP (90 min after administration) was 1.4 ± 0.5 mmHg, the “LVEDP change vs before administration” value (90 min after administration) was “(−0.97 ± 0.77) mmHg” and the LVP (90 min after administration) was 99 ± 15 mmHg. For the same compound, the “LVP change vs before administration” value (90 min after administration) was “(−4.2 ± 18.7) mmHg”, the LVW (90 min after administration) was 1.14 ± 0.44 kg · m and the “LVW change vs before administration” value (90 min after administration) was “(−0.07 ± 0.08) kg · m”. The TPR (90 min after administration) was 4952 ± 1517 dyn · s/cm^5, the “TPR change vs before administration” value (90 min after administration) was “(−272 ± 349) dyn · s/cm^5” and the dp/dt (90 min after administration) was 1100 ± 160 mmHg/s. For the same compound, the “dp/dt change vs before administration” value (90 min after administration) was “(45 ± 73) mmHg/s”, the “−dp/dt” value (90 min after administration) was −762 ± 139 mmHg/s and the “−dp/dt change vs before administration” value (90 min after administration) was “(74 ± 184) mmHg/s”. For the same compound, the CF (120 min after administration) was 55.6 ± 19.7 ml/min/100 g, the “CF change vs before administration” value (120 min after administration) was “(−1.4 ± 11.1) ml/min/100 g” and the CI (120 min after administration) was 2.14 ± 0.50 L/min/m^2. For the same compound, the “CI change vs before administration” value (120 min after administration) was “(0.00 ± 0.06) L/min/m^2”, the CO (120 min after administration) was 1.20 ± 0.30 L/min and the “CO change vs before administration” value (120 min after administration) was “(0.00 ± 0.03) L/min”. For the same compound, the CR (120 min after administration) was 1.51 ± 0.82 mmHg/ml/min/100 g, the “CR change vs before administration” value (120 min after administration) was “(0.11 ± 0.41) mmHg/ml/min/100 g” and the LVEDP (120 min after administration) was 1.8 ± 0.8 mmHg. For the same compound, the “LVEDP change vs before administration” value (120 min after administration) was “(−0.66 ± 0.47) mmHg”, the LVP (120 min after administration) was 97 ± 14 mmHg and the “LVP change vs before administration” value (120 min after administration) was “(−5.5 ± 19.3) mmHg”. The LVW (120 min after administration) was 1.17 ± 0.45 kg · m, the “LVW change vs before administration” value (120 min after administration) was “(−0.04 ± 0.05) kg · m” and the TPR (120 min after administration) was 5046 ± 1440 dyn · s/cm^5. The “TPR change vs before administration” value (120 min after administration) was “(−178 ± 394) dyn · s/cm^5”, the dp/dt (120 min after administration) was 1088 ± 182 mmHg/s and the “dp/dt change vs before administration” value (120 min after administration) was “(33 ± 59) mmHg/s”. The “−dp/dt” value (120 min after administration) was −748 ± 167 mmHg/s, the “−dp/dt change vs before administration” value (120 min after administration) was “(88 ± 215) mmHg/s” and the CF (before administration) was 57 ± 16.1 ml/min/100 g. For the same compound, the CI (before administration) was 2.14 ± 0.52 L/min/m^2, the CO (before administration) was 1.20 ± 0.32 L/min and the CR (before administration) was 1.40 ± 0.49 mmHg/ml/min/100 g. The LVEDP (before administration) was 2.4 ± 1.1 mmHg, the LVP (before administration) was 103 ± 12 mmHg and the LVW (before administration) was 1.21 ± 0.44 kg · m. The TPR (before administration) was 5224 ± 1465 dyn · s/cm^5, the dp/dt (before administration) was 1055 ± 157 mmHg/s and the “−dp/dt” value (before administration) was −836 ± 194 mmHg/s. For the same compound, the Heart rate (vs pre-administration) was “decreased slightly”, the blood pressure (vs pre-administration) was “no significant change” and the “CF and CR” value (within 120 min) was “no significant changes”.
